Source: PubChem BioAssay (NCI)
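Dose response: 5 concentrations. Exposure: 48 h. Format: 96-well plates. Endpoint: linear interpolation; highest concentration if not reached. GI50 marks 50% less growth. The concentration for full growth arrest is given as TGI.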

Assays:
Test in all cases: NCI anticancer screen, dose series, 48 h
HCT-15 colon = tested on: HCT-15 colon
SN12C renal = tested on: SN12C renal
SNB-75 CNS = tested on: SNB-75 CNS
ACHN renal = tested on: ACHN renal
COLO 205 colon = tested on: COLO 205 colon
HCC-2998 colon = tested on: HCC-2998 colon
CCRF-CEM leukemia = tested on: CCRF-CEM leukemia
A549 NSCLC = tested on: A549 NSCLC
SR leukemia = tested on: SR leukemia
MDA-MB-435 = tested on: MDA-MB-435

Structure (SMILES)	TGI (HCT-15 colon) [µM]	TGI (SN12C renal) [µM]	TGI (SNB-75 CNS) [µM]	TGI (ACHN renal) [µM]	TGI (COLO 205 colon) [µM]	TGI (HCC-2998 colon) [µM]	TGI (CCRF-CEM leukemia) [µM]	TGI (A549 NSCLC) [µM]	TGI (SR leukemia) [µM]	GI50 (HCT-15 colon) [µM]	GI50 (MDA-MB-435) [µM]	TGI (MDA-MB-435) [µM]	GI50 (SN12C renal) [µM]	GI50 (SNB-75 CNS) [µM]	GI50 (ACHN renal) [µM]	GI50 (COLO 205 colon) [µM]	GI50 (HCC-2998 colon) [µM]	GI50 (CCRF-CEM leukemia) [µM]	GI50 (A549 NSCLC) [µM]
CN(C)c1ccc(C(C=C2c3ccccc3Sc3ccccc32)=C(C#N)C#N)cc1	> 100	> 100	89.9	> 100	> 100	> 100	> 100	> 100											
COC(=O)c1cc2c(s1)C(=O)c1ccccc1-2	> 100	> 100	> 100	> 100	> 100	> 100	> 100	> 100											
O=c1[nH]c2c(nc1NC13CC4CC(CC(C4)C1)C3)c(=O)oc1ccccc12	> 100	> 100	> 100	> 100	> 100	> 100	> 100	> 100	> 100										
CC(C)(C)CC(C)(C)c1cc2c(O)c(c1)Cc1cc(C(C)(C)CC(C)(C)C)cc(c1O)Cc1cc(C(C)(C)CC(C)(C)C)cc(c1O)Cc1cc(C(C)(C)CC(C)(C)C)cc(c1O)C2	> 100	> 100	> 100	> 100	> 100	> 100	> 100	> 100											
CCCCC(C(=O)C(=O)NC1C2CC3CC(C2)CC1C3)C(=O)C(C)C (configuration not stated)	> 100	> 100	> 100	> 100	> 100	> 100	> 100	> 100	> 100										
S=C(Nc1ccccc1)N(/N=C/C=C/c1ccccc1)c1nnc(-c2ccccc2)c(-c2ccccc2)n1	> 100	> 100	> 100	> 100	> 100	> 100	> 100	> 100											
COc1ccc(C2C(Cl)C(=O)N2n2cnc3ccccc3c2=O)cc1 (configuration not stated)	> 100	> 100	86.2	> 100	> 100	> 100		> 100	> 100										
CCOC(=O)CCCn1c(SC)nc2[nH]cc(-c3ccccc3)c2c1=O	> 100	49.9	40.1	43.2	56.1	> 100	54.5	36.2		27.1	19.4	42.4	17	15.1	8.09	24.2	> 100	3.01	12.2
O=C(OC(CNc1cc(=O)n(Cc2ccccc2)c(=O)n1Cc1ccccc1)CN1CCCC1)c1ccccc1 (configuration not stated)	> 100	> 100	> 100	> 100	> 100	> 100	> 100	> 100		> 100	> 100	> 100	> 100	16.5	> 100	> 100	> 100	23.7	> 100
Cc1ccc(NC(=O)C(=O)C(C(=O)c2ccc3ccccc3c2)C2OC(=O)c3ccccc32)cc1C (configuration not stated)	24.2	44.8	7.34	> 100	32.6	18.9	51.3	82.4											
Cn1c2c(c3ccccc31)C1CCCCCCC1C1C(=O)OC(=O)C21 (configuration not stated)	> 100	> 100	> 100	> 100	> 100	70.3	59	> 100	87.4										
CC1(C)COC(c2cccnc2/C=N/O)=N1	> 100	> 100	> 100	> 100	> 100		> 100	> 100	> 100										
CO/N=C/c1cc(OC)c(OC)c(OC)c1	> 100	> 100	> 100	> 100	> 100	> 100	> 100	> 100	> 100										
COc1ccc2c3c([nH]c2c1[N+](=O)[O-])C(C)=NCC3	> 100	> 100	> 100	> 100	> 100	> 100	> 100	> 100	> 100										
C=CCCCCC/C=C\[C@H](O)C#CC#C/C=C/CO	> 100	35.1	> 100	> 100	> 100	25.1		45.4		30	39.8	> 100	15	> 100	> 100	36.7	12.5		21.2
O=C(/C=C/c1ccccc1O)c1ccccc1O	> 100	> 100	> 100	> 100	> 100	> 100	> 100	> 100											
N#Cc1nc(Nc2cccc3ccccc23)sc1N	> 100	> 100	> 100	75.3	81.5	41.2		> 100	27.8										
CC(C)c1ccc2c(c1)CC[C@@H]1[C@@](C)(C(=O)O)CCC[C@]21C	19.6			23.5	7.83	22.3		25		6.38	10.9	29.5			11.4	3.23	6.07		5.56
CCCCCCCCCCCCCC1=NC(C)(C)CN1C(C)C	2.59	2.98	3	2.99	2.71	2.74	3.43	3.25		1.32	1.51	3.08	1.59	1.64	1.64	1.41	1.41	1.54	1.76
CCCCCCCCCCCCOC1C(C(COC2OC(C3COC(C)(C)O3)C3OC(C)(C)OC23)NC(=O)Nc2ccc(C(=O)O)cc2)OC2OC(C)(C)OC21 (configuration not stated)	6.7	12.4	10.8	12.2	9.05	3.82	0.577	10.9		2.63	2.63	7.91	3.45	2.47	3.56	2.71	2.05	0.306	3.34
